# Experimental data: patent US20040248887A1, “Inhibitors of cathepsin S” (IRM LLC, priority 2003, published 2004)
# Biological target: Cathepsin S (Homo sapiens, UniProt P25774)
# Experiment: Cathepsin S inhibition, fluorogenic peptide substrate kinetic assay
# Format: biochemical
# Conditions: Table II; Cathepsin S inhibition constant, pH5.5; read-out: Ki Cat. S
# Procedure, shortened: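 Reactions were started with 50 μM (final) acetyl-His-Pro-Val-Lys-aminocarbamoylcoumarin, and hydrolysis was followed by fluorescence (ex 380/em 450 nm). Apparent inhibition constants from enzyme progress curves were converted to Ki for competitive inhibitors using substrate concentration and Km.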
# Sequence of Cathepsin S (P25774 115-331, species assumed): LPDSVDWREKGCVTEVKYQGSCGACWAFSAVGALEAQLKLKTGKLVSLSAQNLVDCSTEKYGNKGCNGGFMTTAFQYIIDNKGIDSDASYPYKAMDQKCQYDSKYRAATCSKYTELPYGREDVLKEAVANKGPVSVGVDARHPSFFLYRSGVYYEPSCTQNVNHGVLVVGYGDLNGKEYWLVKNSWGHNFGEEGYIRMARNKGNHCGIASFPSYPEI
row,SMILES,Ki [nM]
1,"COc1ccc(NC[C@H](C)NC(=O)[C@H](CC2CCCCC2)NC(=O)c2ccc(-c3ccc(F)cc3)o2)cc1 [Compound 105, 5-(4-Fluoro-phenyl)-furan-2-carboxylic acid {2-cyclohexyl-1-(S)-[2-(4-methoxy-phenylamino)-1-(S)-methyl-ethylcarbamoyl]-ethyl}-amide]",< 100
2,"CS(=O)(=O)N1CCC(C(=O)N[C@@H](CC2CCCCC2)C(=O)NCCN2CCc3cc(F)ccc32)CC1 [Compound 77, 1-Methanesulfonyl-piperidine-4-carboxylic acid (S)-{2-cyclohexyl-1-[2-(5-fluoro-2,3-dihydro-indol-1-yl)-ethylcarbamoyl]-ethyl}-amide]",< 1000
3,"COc1ccc(N[C@@H]2CCCC[C@H]2NC(=O)[C@H](CC(C)C)NC(=O)c2cccc(C)c2)cc1 (mixture of isomers) [Compound 34, N-{1-(S)-[trans-2-(4-Methoxy-phenylamino)-cyclohexylcarbamoyl]-3-methyl-butyl}-3-methyl-benzamide]",< 1000
4,"CS(=O)(=O)NCc1ccc(C(=O)N[C@@H](CC2CCCCC2)C(=O)NCCN2CCc3cc(F)ccc32)cc1 [Compound 79, N-(S)-{2-cyclohexyl-1-[2-(5-fluoro-2,3-dihydro-indol-1-yl)-ethylcarbamoyl]-ethyl}-4-(methanesulfonylamino-methyl)-benzamide]",< 100
5,"CSc1ccc(NC[C@H](C)NC(=O)[C@H](CC2CCCCC2)NC(=O)c2ccc(-c3cccc(F)c3)o2)cc1 [Compound 117, 5-(3-Fluoro-phenyl)-furan-2-carboxylic acid {2-cyclohexyl-1-(S)-[1-(S)-methyl-2-(4-methylsulfanyl-phenylamino)-ethylcarbamoyl]-ethyl}-amide]",< 100
6,"CS(=O)(=O)N1CCC(Oc2ccc(C(=O)N[C@@H](CC3CCCCC3)C(=O)NCCN3CCc4cc(F)ccc43)cc2)CC1 [Compound 68, N-(S)-{2-cyclohexyl-1-[2-(5-fluoro-2,3-dihydro-indol-1-yl)-ethylcarbamoyl]-ethyl}-4-(1-methanesulfonyl-piperidin-4-yloxy)-benzamide]",< 1000

# Now from value to molecule:
row,Ki [nM],SMILES
1,< 100,"COc1cc(COC[C@@H](CN2CCc3cc(F)ccc32)NC(=O)[C@H](CCC2CCCCC2)NC(=O)c2cccc(OC)c2)cc(OC)c1 [Compound 170, N-{3-Cyclohexyl-1-(S)-[2-(3,5-dimethoxy-benzyloxy)-1-(R)-(5-fluoro-2,3-dihydro-indol-1-ylmethyl)-ethylcarbamoyl]-propyl}-3-methoxy-benzamide]"
2,< 10000,"Cn1cncc1S(=O)(=O)N[C@@H](CC1CCCCC1)C(=O)NCCN1CCc2cc(F)ccc21 [Compound 232, (S)-3-Cyclohexyl-N-[2-(5-fluoro-2,3-dihydro-indol-1-yl)-ethyl]-2-(3-methyl-3H-imidazole-4-sulfonylamino)-propionamide]"
3,< 100,"COc1cccc(C(=O)N[C@@H](CCC2CCCCC2)C(=O)N[C@@H](CCCCN)CN2CCc3cc(F)ccc32)c1 [Compound 167, N-{1-(S)-[5-Amino-1-(S)-(5-fluoro-2,3-dihydro-indol-1-ylmethyl)-pentylcarbamoyl]-3-cyclohexyl-propyl}-3-methoxy-benzamide]"
4,< 10000,"C[C@@H](CN1CC(C)(C)c2cc(F)ccc21)NC(=O)[C@H](CC(C)(C)C)NC(=O)[C@H]1CCCO1 [Compound 271, Tetrahydro-furan-2-(R)-carboxylic acid {1-(S)-[2-(5-fluoro-3,3-dimethyl-2,3-dihydro-indol-1-yl)-1-(S)-methyl-ethylcarbamoyl]-3,3-dimethyl-butyl}-amide]"
5,< 1000,"O=C(NCCN1CCc2cc(F)ccc21)[C@H](CC1CCCCC1)NS(=O)(=O)c1scc(Br)c1Cl [Compound 224, (S)-2-(4-Bromo-3-chloro-thiophene-2-sulfonylamino)-3-cyclohexyl-N-[2-(5-fluoro-2,3-dihydro-indol-1-yl)-ethyl]-propionamide]"
